From patent publication US20120309622A1, “HERBICIDES CONTAINING SUBSTITUTED THIEN-3-YL-SULPHONYLAMINIO(THIO)CARBONYL-TRIAZOLIN(ETHI)ONES” (BAYER INTELLECTUAL PROPERTY GMBH, priority 2001, published 2012)
Like-named read-outs stand apart in the source and are kept apart here.

Experiments:
Test in all cases: Post-emergence test/greenhouse, % damage after three weeks
Assay type in all cases: in vivo
Cyperus esculentus = tested on: Cyperus esculentus
Source text: (§1) The expected action for a given combination of two herbicides can be calculated as follows (cf. COLBY, S. R.: “Calculating synergistic and antagonistic responses of herbicide combinations”, Weeds 15, pages 20-22, 1967):
(§2) If • X=% damage by herbicide A (active compound of the formula I) at an application rate of p kg/ha and • Y=% damage by herbicide B (active compound of the formula II) at an application rate of q kg/ha and • E=the expected damage of herbicides A+B at an application rate of p+q kg/ha, then
(§3) If the actual damage exceeds the calculated value, the combination has a superadditive effect, that is to say a synergistic effect.
(§4) Test plants are grown under control conditions (temperature and light). Once the plants have reached a height of 5 to 15 cm, the test compound or the combination of test compounds is applied by spraying such that the particular amounts of active compound desired are applied per unit area. The concentration of the spray liquor is chosen so that the particular amounts of active compound desired are applied in 500 litres of water/ha.
(§5) Following the spray application, the plant containers are kept in the greenhouse under constant light and temperature conditions.
(§6) After three weeks, the degree of damage to the plants is rated in % damage in comparison to the development of the untreated control.
(§7) The figures denote: • 0%=no effect (like untreated control) • 100%=total destruction

Bromus secalinus = tested on: Bromus secalinus
Description: as §1, §3
(§8) Test plants are grown under control conditions (temperature and light).
as §5, §6

Lolium perenne = tested on: Lolium perenne
Eriochloa villosa = tested on: Eriochloa villosa
Cassia tora = details: 30 g of ai/ha
Description: as §1, §3, §8, §5, §6

Setaria viridis = details: for Setria viridis observed: post-emergence
Source text: as §1, §2, §3, §4, §5, §6, §7

Alopecurus myosuroides = details: 250 g of ai/ha
Source text: as §1, §2, §3, §4, §5, §6, §7

Veronica persicaria = tested on: Veronica persicaria
Description: as §1, §3, §8, §5, §6

Digitaria sanguinalis = tested on: Digitaria sanguinalis
Source text: as §1, §2, §3, §4, §5, §6, §7

Matricaria inodora = tested on: Matricaria inodora
Source text: as §1, §2, §3, §4, §5, §6, §7

[1] = Bromus secalinus, post-emergence, 504 h, 4 g of ai/ha, read-out: Bromus secalinus observed
[2] = Bromus secalinus, post-emergence, 504 h, read-out: Bromus secalinus observed

## COc1nc(C)nc(=NC(=O)NS(=O)(=O)c2ccccc2C(=O)O)[nH]1 [metsulfuron]
Cyperus esculentus; 4 g of ai/ha
  Cyperus esculentus observed: 30%
Bromus secalinus; Bromus secalinus, post-emergence, 504 h, 2 g of ai/ha, read-out: Bromus secalinus observed
  pest or weed control at 2 g/ha: 0%
Bromus secalinus; [1]
  pest or weed control at 4 g/ha: 0%
Lolium perenne; 2 g of ai/ha
  Lolium perenne observed: 70%

## COc1cc(OC)nc(NC(=O)NS(=O)(=O)c2ncccc2C(=O)N(C)C)n1 [nicosulfuron]
Eriochloa villosa; 30 g of ai/ha
  Eriochloa villosa observed: 90%

## O=C(Nc1ccc(F)cc1)c1cccc(Oc2cccc(C(F)(F)F)c2)n1 [picolinafen]
Cassia tora
  Cassia tora observed: 70%
Eriochloa villosa; 15 g of ai/ha
  Eriochloa villosa observed: 30%
Eriochloa villosa; 30 g of ai/ha
  Eriochloa villosa observed: 80%
Lolium perenne; 15 g of ai/ha
  Lolium perenne observed: 0%
Lolium perenne; 30 g of ai/ha
  Lolium perenne observed: 20%

## CCOC(=O)COc1cc(-c2nn(C)c(OC(F)F)c2Cl)c(F)cc1Cl [pyraflufen ethyl]
Setaria viridis; application rate 2 g of ai/ha
  Setria viridis observed: 40%
Setaria viridis; application rate 4 g of ai/ha
  Setria viridis observed: 40%

## CCOC(=O)COc1cc(-c2nn(C)c(OC(F)F)c2Cl)c(F)cc1Cl [pyraflufen-ethyl]
Bromus secalinus; [2]
  pest or weed control at 2 g/ha: 30%
  pest or weed control at 4 g/ha: 30%
Lolium perenne; 2 g of ai/ha
  Lolium perenne observed: 0%
Lolium perenne; 4 g of ai/ha
  Lolium perenne observed: 30%

## C[S+](C)C.O=C([O-])CNCP(=O)(O)O [sulfosate]
Alopecurus myosuroides
  Alopecurus myosuroides observed: 30%
Lolium perenne; 250 g of ai/ha
  Lolium perenne observed: 70%

## COC(=O)c1ccccc1S(=O)(=O)NC(=O)N(C)c1nc(C)nc(OC)n1 [tribenuron-methyl]
Cyperus esculentus; 4 g of ai/ha
  Cyperus esculentus observed: 0%
Cyperus esculentus; 8 g of ai/ha
  Cyperus esculentus observed: 0%
Bromus secalinus; [1]
  pest or weed control at 4 g/ha: 0%
Bromus secalinus; Bromus secalinus, post-emergence, 504 h, 8 g of ai/ha, read-out: Bromus secalinus observed
  pest or weed control at 8 g/ha: 0%
Veronica persicaria; 4 g of ai/ha
  Veronica persicaria observed: 90%

## COc1nc(NC(=O)NS(=O)(=O)c2ccccc2C(F)(F)F)nc(C(F)(F)F)n1 [tritosulfuron]
Digitaria sanguinalis; 15 g of ai/ha
  Digitaria sanguinalis observed: 30%
Digitaria sanguinalis; 30 g of ai/ha
  Digitaria sanguinalis observed: 40%
Setaria viridis; 30 g of ai/ha
  Setaria viridis observed: 0%
Lolium perenne; 15 g of ai/ha
  Lolium perenne observed: 0%
Lolium perenne; 30 g of ai/ha
  Lolium perenne observed: 0%

## fluroxypyr
Matricaria inodora; 60 g of ai/ha
  Matricaria inodora observed: 30%
Matricaria inodora; 125 g of ai/ha
  Matricaria inodora observed: 70%
Bromus secalinus; 60 g of ai/ha
  Bromus secalinus observed: 0%
Bromus secalinus; 125 g of ai/ha
  Bromus secalinus observed: 0%
Veronica persicaria; 125 g of ai/ha
  Veronica persicaria observed: 90%

## glyphosate
Bromus secalinus; 125 g of ai/ha
  Bromus secalinus observed: 20%
Bromus secalinus; 250 g of ai/ha
  Bromus secalinus observed: 80%
Veronica persicaria; 250 g of ai/ha
  Veronica persicaria observed: 50%
Eriochloa villosa; 250 g of ai/ha
  Eriochloa villosa observed: 70%

## imazamox
Digitaria sanguinalis; 8 g of ai/ha
  Digitaria sanguinalis observed: 30%
Matricaria inodora; 8 g of ai/ha
  Matricaria inodora observed: 30%
Matricaria inodora; 15 g of ai/ha
  Matricaria inodora observed: 50%
Bromus secalinus; 8 g of ai/ha
  Bromus secalinus observed: 60%

## iodosulfuron
Setaria viridis; 2 g of ai/ha
  Setaria viridis observed: 0%
Setaria viridis; 4 g of ai/ha
  Setaria viridis observed: 0%
Bromus secalinus; 2 g of ai/ha
  Bromus secalinus observed: 0%
Bromus secalinus; 4 g of ai/ha
  Bromus secalinus observed: 0%
Veronica persicaria; 2 g of ai/ha
  Veronica persicaria observed: 90%

## sulcotrione
Bromus secalinus; 60 g of ai/ha
  Bromus secalinus observed: 0%
Bromus secalinus; 120 g of ai/ha
  Bromus secalinus observed: 30%

## terbuthylazine
Bromus secalinus; 500 g of ai/ha
  Bromus secalinus observed: 50%

## thifensulfuron-methyl
Setaria viridis; 15 g of ai/ha
  Setaria viridis observed: 0%
Bromus secalinus; 8 g of ai/ha
  Bromus secalinus observed: 0%
Bromus secalinus; 15 g of ai/ha
  Bromus secalinus observed: 0%
Eriochloa villosa; 15 g of ai/ha
  Eriochloa villosa observed: 10%
